Measured values published in the supplement of paper PMC9663587.

Experiments:
BSJ-03-123 = compound: CC(=O)c1c(C)c2cnc(Nc3ccc(N4CCN(CCOCCOCCOCCNC(=O)COc5cccc6c5C(=O)N(C5CCC(=O)NC5=O)C6=O)CC4)cn3)nc2n(C2CCCC2)c1=O [BSJ-03-123]
ABT-737 = compound: CN(C)CC[C@H](CSc1ccccc1)Nc1ccc(S(=O)(=O)NC(=O)c2ccc(N3CCN(Cc4ccccc4-c4ccc(Cl)cc4)CC3)cc2)cc1[N+](=O)[O-] [ABT-737]
Buparlisib/NVP-BKM120 = compound: Nc1cc(C(F)(F)F)c(-c2cc(N3CCOCC3)nc(N3CCOCC3)n2)cn1 [Buparlisib/NVP-BKM120]
BSJ-01-175 = compound: CN(C)C/C=C/C(=O)Nc1ccc(O[C@@H]2CCC[C@@H](Nc3ncc(Cl)c(-c4c[nH]c5ccccc45)n3)C2)cc1 [BSJ-01-175]
Neratinib/HKI272 = compound: CCOc1cc2ncc(C#N)c(Nc3ccc(OCc4ccccn4)c(Cl)c3)c2cc1NC(=O)/C=C/CN(C)C [Neratinib/HKI272]
Pictilisib/GDC0941 = compound: CS(=O)(=O)N1CCN(Cc2cc3nc(-c4cccc5[nH]ncc45)nc(N4CCOCC4)c3s2)CC1 [Pictilisib/GDC0941]
Flavopiridol = compound: CN1CC[C@H](c2c(O)cc(O)c3c(=O)cc(-c4ccccc4Cl)oc23)[C@H](O)C1 [Flavopiridol]
R0-3306 = compound: C1=CC2=C(C=CC(=C2)C=C3C(=O)NC(=NCC4=CC=CS4)S3)N=C1 [R0-3306]
Torin2 = compound: C1=CC(=CC(=C1)N2C(=O)C=CC3=CN=C4C=CC(=CC4=C32)C5=CN=C(C=C5)N)C(F)(F)F [Torin2]
Tivantinib/ARQ197 = compound: O=C1NC(=O)[C@@H](c2cn3c4c(cccc24)CCC3)[C@@H]1c1c[nH]c2ccccc12 [Tivantinib/ARQ197]
AZD2014 = compound: CNC(=O)c1cccc(-c2ccc3c(N4CCOC[C@@H]4C)nc(N4CCOC[C@@H]4C)nc3n2)c1 [AZD2014]
THZ-P1-2 = compound: CN(C)C/C=C/C(=O)NC1=CC=C(C=C1)C(=O)NC2=CC=CC(=C2)NC3=NC=NC(=C3)C4=CNC5=CC=CC=C54 [THZ-P1-2]
Volasertib/BI6727 = compound: CC[C@@H]1C(=O)N(C)c2cnc(Nc3ccc(C(=O)N[C@H]4CC[C@H](N5CCN(CC6CC6)CC5)CC4)cc3OC)nc2N1C(C)C [Volasertib/BI6727]
Luminespib/NVP-AUY922 = compound: CCNC(=O)c1noc(-c2cc(C(C)C)c(O)cc2O)c1-c1ccc(CN2CCOCC2)cc1 [Luminespib/NVP-AUY922]
[1] = compound: CCc1cnn2c(NCc3ccc[n+]([O-])c3)cc(N3CCCC[C@H]3CCO)nc12
[2] = compound: CNc1nc(-c2ccc3c(N)n[nH]c3c2)cc(N2C[C@@H](C(=O)NC3CCCCC3)CC[C@H]2C)n1
Ipatasertib/GDC0068 = compound: CC(C)NC[C@@H](C(=O)N1CCN(c2ncnc3c2[C@H](C)C[C@H]3O)CC1)c1ccc(Cl)cc1 [Ipatasertib/GDC0068]
senexin b = compound: CN1CCN(C(=O)c2ccc3cc(CCNc4ncnc5ccc(C#N)cc45)ccc3c2)CC1 [senexin b]
INK128/MLN0128 = compound: CC(C)n1nc(-c2ccc3oc(N)nc3c2)c2c(N)ncnc21 [INK128/MLN0128]
[3] = compound: Cc1nn(C)c(COc2ccc(N3CCN(S(=O)(=O)N(C)C)CC3)cc2)c1-c1cccc2c(CCCOc3cccc4ccccc34)c(C(=O)O)n(CCN3CCOCC3)c12
LEE011/Ribociclib = compound: CN(C)C(=O)c1cc2cnc(Nc3ccc(N4CCNCC4)cn3)nc2n1C1CCCC1 [LEE011/Ribociclib]
Dasatinib = compound: Cc1nc(Nc2ncc(C(=O)Nc3c(C)cccc3Cl)s2)cc(N2CCN(CCO)CC2)n1 [Dasatinib]
Paclitaxel = compound: CC(=O)O[C@H]1C(=O)[C@@]2(C)[C@H]([C@H](OC(=O)c3ccccc3)[C@]3(O)C[C@H](OC(=O)[C@H](O)[C@@H](NC(=O)c4ccccc4)c4ccccc4)C(C)=C1C3(C)C)[C@]1(OC(C)=O)CO[C@@H]1C[C@@H]2O [Paclitaxel]
TGX221 = compound: CC1=CN2C(=O)C=C(N=C2C(=C1)C(C)NC3=CC=CC=C3)N4CCOCC4 [TGX221]
Ceritinib/LDK378 = compound: Cc1cc(Nc2ncc(Cl)c(Nc3ccccc3S(=O)(=O)C(C)C)n2)c(OC(C)C)cc1C1CCNCC1 [Ceritinib/LDK378]
Doxorubicin = compound: COc1cccc2c1C(=O)c1c(O)c3c(c(O)c1C2=O)C[C@@](O)(C(=O)CO)C[C@@H]3O[C@H]1C[C@H](N)[C@H](O)[C@H](C)O1 [Doxorubicin]
[4] = compound: CCC1=CN=CN=C1N2CCN(CC2)CC3=NC4=C(N3)C=C(C=C4)C(F)(F)F
Cabozantinib = compound: COc1cc2nccc(Oc3ccc(NC(=O)C4(C(=O)Nc5ccc(F)cc5)CC4)cc3)c2cc1OC [Cabozantinib]
AZD7762 = compound: NC(=O)Nc1cc(-c2cccc(F)c2)sc1C(=O)N[C@H]1CCCNC1 [AZD7762]
Olaparib/AZD2281 = compound: O=C(c1cc(Cc2n[nH]c(=O)c3ccccc23)ccc1F)N1CCN(C(=O)C2CC2)CC1 [Olaparib/AZD2281]
Taselisib/GDC0032 = compound: Cc1nc(-c2cn3c(n2)-c2ccc(-c4cnn(C(C)(C)C(N)=O)c4)cc2OCC3)n(C(C)C)n1 [Taselisib/GDC0032]
[5] = compound: CC(=O)c1c(C)c2cnc(Nc3ccc(N4CCNCC4)cn3)nc2n(C2CCCC2)c1=O
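Note: breast cancer and non-malignant breast epithelial cell lines, Deep Dye Drop or Dye Drop imaging, nine half-log doses, GR normalized to time-zero plates and DMSO-only controls.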

| Cell Line | GR50, 72 h (BSJ-03-123) [µM] | GR50, 72 h (ABT-737) [µM] | GR50, 72 h (Buparlisib/NVP-BKM120) [µM] | GR50, 72 h (BSJ-01-175) [µM] | GR50, 72 h (Neratinib/HKI272) [µM] | GR50, 72 h (Pictilisib/GDC0941) [µM] | GR50, 72 h (Flavopiridol) [µM] | GR50, 72 h (R0-3306) [µM] | GR50, 72 h (Torin2) [µM] | GR50, 72 h (Tivantinib/ARQ197) [µM] | GR50, 72 h (AZD2014) [µM] | GR50, 72 h (THZ-P1-2) [µM] | GR50, 72 h (Volasertib/BI6727) [µM] | GR50, 72 h (Luminespib/NVP-AUY922) [µM] | GR50, 72 h [1] [µM] | GR50, 72 h [2] [µM] | GR50, 72 h (Ipatasertib/GDC0068) [µM] | GR50, 72 h (senexin b) [µM] | GR50, 72 h (INK128/MLN0128) [µM] | GR50, 72 h [3] [µM] | GR50, 72 h (LEE011/Ribociclib) [µM] | GR50, 72 h (Dasatinib) [µM] | GR50, 72 h (Paclitaxel) [µM] | GR50, 72 h (TGX221) [µM] | GR50, 72 h (Ceritinib/LDK378) [µM] | GR50, 72 h (Doxorubicin) [µM] | GR50, 72 h [4] [µM] | GR50, 72 h (Cabozantinib) [µM] | GR50, 72 h (AZD7762) [µM] | GR50, 72 h (Olaparib/AZD2281) [µM] | GR50, 72 h (Taselisib/GDC0032) [µM] | GR50, 72 h [5] [µM] |
| --- | --- | --- | --- | --- | --- | --- | --- | --- | --- | --- | --- | --- | --- | --- | --- | --- | --- | --- | --- | --- | --- | --- | --- | --- | --- | --- | --- | --- | --- | --- | --- | --- |
| 184A1 | 0.00892 | 3.93 | 1.52 | 0.00519 | 0.0293 | 1.3 | 0.0383 | 2.78 | 0.0106 | 0.0644 | 0.00164 | 1.72 | 0.0124 | 0.00549 | 0.0086 | > 10 | > 10 | > 10 | 0.00892 | 3.65 | 0.285 | 0.756 | 0.00313 | > 10 | 1 | 0.00333 | > 10 | 8.43 | 2.62 | > 10 | 0.192 | 0.0897 |
| AU565 | 1.21 | 7.24 | 0.106 | 0.00616 | 0.00121 | 0.067 | 0.09 | 0.478 | 0.00547 | 0.215 | 0.00361 | 5.22 | 0.00381 | 0.00456 | 0.00743 | 7.64 | 3.89 | > 10 | 0.00529 | > 10 | 0.663 | 5.35 | 0.00163 | > 10 | 3.15 | 0.0352 | 9.42 | 9.13 | 0.805 | > 10 | 0.00379 | 0.165 |
| BT20 | 0.386 | > 10 | 0.638 | 0.0388 | 1.27 | 0.904 | 0.11 | 5.2 | 0.0089 | 0.473 | 0.146 | 6.01 | 0.00563 | 0.00597 | 0.0185 | > 10 | 0.645 | 2.3 | 0.0129 | > 10 | 0.359 | 0.68 | 0.00202 | > 10 | 1.53 | 0.00874 | > 10 | 5.35 | 1.1 | > 10 | 0.0181 | 0.0435 |
| BT474 | 0.235 | 5.21 | 0.281 | 0.0747 | 0.00166 | 0.188 | 0.208 | 3.53 | 0.00998 | 0.551 | < 0.001 | 5.82 | 0.00821 | 0.00444 | 0.0162 | 1.3 | 0.521 | 5.65 | 0.00873 | > 10 | > 10 | 0.0392 | 0.00412 | > 10 | > 10 | 0.0267 | > 10 | > 10 | 2 | > 10 | 0.00452 | > 3.16 |
| HCC1569 | 2.86 | 1.07 | 0.908 | 0.00923 | 0.0891 | 0.599 | 0.11 | 4.54 | 0.0105 | 0.992 | – | 4.75 | 0.0189 | 0.0107 | 0.0164 | > 10 | 0.394 | > 10 | 0.0132 | > 10 | > 10 | 0.0769 | 0.00208 | > 10 | 4.5 | 0.0255 | > 10 | > 10 | 0.0361 | > 10 | 0.0552 | > 3.16 |
| HTERT_HME1 | 0.366 | – | 1.15 | 0.00582 | 0.151 | 2.8 | 0.112 | 4.01 | 0.0253 | 0.0344 | 0.0169 | 4.1 | 0.0172 | 0.00855 | 0.0121 | > 10 | > 10 | > 10 | 0.0335 | 0.899 | 1.2 | 0.183 | 0.00317 | > 10 | 0.822 | 0.00471 | 5.4 | 3.24 | 0.259 | > 10 | 0.148 | 0.222 |
| MCF10A (GM) | 2.21 | – | – | 1.17 | – | – | 0.101 | 6.32 | – | – | 0.034 | 7.51 | – | – | – | > 10 | – | > 10 | – | – | > 10 | – | – | – | – | – | – | – | – | – | – | – |
| PDX1206 | 4.35 | – | – | 0.0192 | – | – | 0.0514 | 3.6 | – | – | < 0.001 | > 10 | – | – | – | 1.86 | – | 1.18 | – | – | > 10 | – | – | – | – | – | – | – | – | – | – | – |
| SUM44PE | 0.818 | 4.3 | 0.412 | 0.0082 | 0.0248 | 0.435 | 0.0276 | 1.91 | 0.00502 | 0.0449 | 0.00197 | 0.196 | 0.00884 | 0.00453 | 0.00834 | 4.21 | 0.27 | 1.77 | 0.0102 | 3.31 | 2.54 | – | 0.00153 | > 10 | 2.56 | 0.0211 | 6.53 | 5.47 | 0.0479 | > 10 | 0.00347 | 0.212 |
| SUM149 | 1.33 | 3.63 | 1.45 | 0.0356 | 0.0697 | 6.06 | 0.196 | 4.86 | 0.142 | 0.281 | 1.92 | 6.14 | 0.012 | 0.00516 | 0.0134 | > 10 | 4.56 | > 10 | 0.163 | 5.97 | > 10 | 0.0931 | 0.00159 | > 10 | 1.7 | 0.00797 | > 10 | 5.87 | 0.0774 | 3.87 | 2.55 | – |
| ZR7530 | 0.58 | > 10 | 0.534 | 0.0237 | 0.000681 | 0.217 | 0.192 | 6.17 | 0.0216 | 0.554 | 0.00146 | 1.64 | 0.00621 | 0.00303 | 0.0163 | – | 2.4 | 1.48 | 0.0153 | > 10 | 0.692 | 0.372 | 0.00474 | > 10 | 1.75 | 0.0148 | 5.13 | – | 1.12 | > 10 | 0.0102 | 0.0889 |
